Patent publication US7067532B2, “Substituted quinolines as antitumor agents” (AstraZeneca, priority 2000, dated 2006)

Tested on: HT29 human colon tumour cells
Assay: Cell proliferation assays
Assay type: cell-based
Settings: HT-29, 72 hours
Procedure: Cell Proliferation Assays Cells were seeded into multi-well plates at 20000–40000 cells/ml in growth medium containing 5% FCS and incubated overnight at 37° C. The compounds were prepared in fresh medium at an appropriate concentration and added to the wells containing the cells. These were then incubated for a further 72 hours. Cells were then either removed from the wells by incubating with trypsin/EDTA and counted using a Coulter counter, or treated with XTT/PMS in PBSA and optical densities read at 450 nm.

IC50: 1300 nM
SMILES: CNC(=O)COc1ccccc1Oc1ccc(Nc2c(C#N)cnc3cc(NCCCN4CCOCC4)c(OC)cc23)cc1 [Compound 11]
